Results published in DBAASP.
In brackets after ≈: the same amount, converted by molar mass.

Columns and labels:
Experiment in all cases: ≥ marks a high value that may be exact or a test limit, other limits are often not marked, values filed in µg/mL are converted to µM
Streptococcus mutans = test system: Streptococcus mutans
Escherichia coli K-12 = test system: Escherichia coli K-12
[1] = test system: Staphylococcus aureus USA 300
[2] = test system: Bacillus subtilis CMCC 63501
[3] = test system: Enterococcus faecalis ATCC 29212
[4] = test system: Escherichia coli ATCC 25922
[5] = test system: Pseudomonas aeruginosa ATCC 27853
[6] = test system: Salmonella enterica subsp. enterica serovar Pullorum C79-13
[7] = test system: Salmonella enterica subsp. enterica serovar Typhimurium C77-31
[8] = test system: Staphylococcus aureus ATCC 29213
[9] = test system: Staphylococcus epidermidis ATCC 12228
[10] = test system: Staphylococcus aureus ATCC 6538P
Staphylococcus aureus = test system: Staphylococcus aureus
[11] = test system: Staphylococcus aureus ATCC 6538
[12] = test system: Bacillus subtilis ATCC 6633
[13] = test system: Candida albicans ATCC 90028
[14] = test system: Escherichia coli ATCC 8739
[15] = test system: Staphylococcus aureus ATCC 43300

NC(=O)[C@H](Cc1ccccc1)NC(=O)[C@H](CCCN=C(N)N)NC(=O)[C@H](Cc1cnc[nH]1)NC(=O)[C@H](Cc1ccccc1)NC(=O)[C@H](Cc1c[nH]c2ccccc12)NC(=O)[C@H](Cc1cnc[nH]1)NC(=O)[C@H](Cc1c[nH]c2ccccc12)NC(=O)[C@H](Cc1ccccc1)NC(=O)[C@H](Cc1ccc(O)cc1)NC(=O)[C@H](Cc1cnc[nH]1)NC(=O)[C@@H](N)Cc1ccccc1 [FHYFWHWFHRF]
MIC (Streptococcus mutans): ≥ 73.1 µM

CC(C)C[C@H](NC(=O)[C@H](CCCCN)NC(=O)[C@H](CCCCN)NC(=O)[C@@H](N)C(C)C)C(=O)N[C@@H](C)C(=O)N[C@@H](CCCCN)C(=O)N[C@@H](CC(C)C)C(=O)N[C@H](C(=O)N[C@@H](CCCN=C(N)N)C(=O)N[C@@H](CCCN=C(N)N)C(=O)N[C@@H](Cc1ccccc1)C(N)=O)C(C)C [VKKLAKLVRRF]
MIC (Streptococcus mutans): 16.7 µM (≈ 22.6 µg/mL)

CC(C)C[C@H](NC(=O)CN)C(=O)N[C@@H](CCCCN)C(=O)N[C@@H](CCCCN)C(=O)N[C@@H](CC(C)C)C(=O)N[C@@H](CC(C)C)C(=O)NCC(=O)N[C@@H](CCCCN)C(=O)N[C@@H](CC(C)C)C(=O)N[C@@H](CC(C)C)C(=O)N[C@@H](CCCCN)C(=O)N[C@@H](CCCCN)C(=O)N[C@@H](CC(C)C)C(=O)NCC(=O)N[C@@H](CCCCN)C(=O)N[C@@H](CC(C)C)C(=O)N[C@@H](CC(C)C)C(=O)N[C@@H](CC(C)C)C(=O)N[C@@H](CCCCN)C(=O)O [GLKKLLGKLLKKLGKLLLK]
MIC (Escherichia coli K-12): 10 µM (≈ 21 µg/mL)
MIC [1]: ≥ 160 µM

NC(=O)[C@H](Cc1c[nH]c2ccccc12)NC(=O)[C@H](CCCN=C(N)N)NC(=O)[C@H](CS)NC(=O)[C@H](Cc1ccccc1)NC(=O)[C@H](CCCN=C(N)N)NC(=O)[C@H](CCCN=C(N)N)NC(=O)[C@H](CCCN=C(N)N)NC(=O)[C@H](CS)NC(=O)[C@H](CCCN=C(N)N)NC(=O)[C@@H](N)Cc1c[nH]c2ccccc12 [WRCRRRFCRW]
MIC [2]: 2 µM (≈ 3.05 µg/mL)
MIC [3]: 8 µM (≈ 12.2 µg/mL)
MIC [4]: 2 µM (≈ 3.05 µg/mL)
MIC [5]: > 128 µM
MIC [6]: 4 µM (≈ 6.1 µg/mL)
MIC [7]: 16 µM (≈ 24.4 µg/mL)
MIC [8]: 8 µM (≈ 12.2 µg/mL)
MIC [9]: 8 µM (≈ 12.2 µg/mL)

CC(C)C[C@H](NC(=O)[C@H](C)NC(=O)[C@H](CCC(=O)O)NC(=O)[C@H](CCCCN)NC(=O)[C@H](C)NC(=O)[C@H](CCC(=O)O)NC(=O)[C@H](Cc1cnc[nH]1)NC(=O)[C@H](CC(C)C)NC(=O)[C@H](C)NC(=O)[C@@H](N)CCCN=C(N)N)C(=O)N[C@@H](CCCCN)C(=O)O [RALHEAKEALK]
MIC (Streptococcus mutans): ≥ 198 µM

CC[C@H](C)[C@@H]1NC(=O)[C@H](C)NC(=O)[C@H](CC(C)C)NC(=O)[C@@H]2CSSC[C@@H](C(=O)N[C@@H](CCCN=C(N)N)C(=O)N[C@@H](CCCN=C(N)N)C(=O)O)NC(=O)[C@H]([C@@H](C)CC)NC(=O)[C@@H]3CSSC[C@H](NC(=O)[C@H](CC(C)C)NC(=O)[C@H](CO)NC(=O)[C@H](Cc4cnc[nH]4)NC(=O)[C@H](CC(N)=O)NC(=O)[C@H](C)NC(=O)[C@H](C)NC(=O)[C@H](Cc4ccccc4)NC(=O)CNC(=O)[C@H](CCCCN)NC(=O)[C@H](C)NC(=O)[C@H](CCC(=O)O)NC(=O)[C@H](Cc4ccccc4)NC(=O)[C@H](CO)NC(=O)[C@H](CC(C)C)NC(=O)[C@H](CC(C)C)NC(=O)[C@H](CC(=O)O)NC(=O)[C@@H](NC(=O)[C@@H](NC(=O)[C@@H](N)C(C)C)[C@@H](C)O)CSSC[C@H](NC(=O)[C@H](CO)NC(=O)CNC(=O)CNC(=O)[C@H](CCCN=C(N)N)NC(=O)[C@H](CCCN=C(N)N)NC(=O)CNC1=O)C(=O)N[C@@H](CCC(=O)O)C(=O)N[C@@H](CCCN=C(N)N)C(=O)NCC(=O)N[C@@H](C(C)C)C(=O)N3)C(=O)N[C@@H](C)C(=O)N[C@@H](C)C(=O)N[C@@H](Cc1cnc[nH]1)C(=O)N2 [VTCDLLSFEAKGFAANHSLCAAHCLAIGRRGGSCERGVCICRR]
MIC [10]: 0.878 µM
MIC (Staphylococcus aureus): 4.39 µM

CC[C@H](C)[C@H](NC(=O)[C@H](CC(C)C)NC(=O)[C@@H]1CCCN1C(=O)[C@H](Cc1ccccc1)NC(=O)[C@H](CC(C)C)NC(=O)[C@@H](N)Cc1ccccc1)C(=O)N[C@H](C(=O)N[C@@H](CO)C(=O)N[C@@H](Cc1ccccc1)C(=O)N[C@@H](CC(C)C)C(=O)N[C@@H](CO)C(=O)N[C@@H](CCCCN)C(=O)N[C@H](C(=O)N[C@@H](CC(C)C)C(=O)O)C(C)C)[C@@H](C)O [FLFPLITSFLSKVL]
MIC (Escherichia coli K-12): ≥ 100 µM
MIC [1]: ≥ 50 µM
MIC (Staphylococcus aureus): 130 µM (≈ 211 µg/mL)

CC[C@H](C)[C@H](NC(=O)[C@H](CCCCN)NC(=O)[C@H](CC(N)=O)NC(=O)[C@H](CCCN=C(N)N)NC(=O)[C@@H](NC(=O)[C@H](CC(N)=O)NC(=O)[C@H](CCCN=C(N)N)NC(=O)[C@@H](NC(=O)[C@H](CCSC)NC(=O)[C@H](CCCCN)NC(=O)[C@H](CCC(=O)O)NC(=O)[C@@H](NC(=O)[C@H](CCCCN)NC(=O)[C@H](CCCCN)NC(=O)[C@H](Cc1ccccc1)NC(=O)[C@@H](NC(=O)[C@H](CCCCN)NC(=O)[C@H](Cc1c[nH]c2ccccc12)NC(=O)[C@@H](N)CCCCN)C(C)C)[C@@H](C)CC)[C@@H](C)CC)[C@@H](C)CC)C(=O)N[C@@H](C)C(=O)N[C@@H](CCCCN)C(N)=O [KWKVFKKIEKMIRNIRNKIAK]
MIC (Escherichia coli K-12): 3 µM (≈ 8.01 µg/mL)
MIC [5]: > 3 µM
MIC [11]: > 6 µM

CC[C@H](C)[C@H](NC(=O)[C@H](CCCCN)NC(=O)[C@H](CCC(N)=O)NC(=O)[C@@H](NC(=O)[C@@H](NC(=O)[C@H](CCCCN)NC(=O)[C@H](CCCCN)NC(=O)[C@H](Cc1ccccc1)NC(=O)[C@H](CCC(=O)O)NC(=O)CN)[C@@H](C)CC)C(C)C)C(=O)N[C@@H](CCCCN)C(=O)N[C@@H](CC(=O)O)C(=O)N[C@@H](Cc1ccccc1)C(=O)N[C@@H](CC(C)C)C(=O)N[C@@H](CCCCN)C(=O)N[C@@H](CC(N)=O)C(=O)N[C@@H](CC(C)C)C(=O)N[C@H](C(N)=O)C(C)C [GEFKKIVQKIKDFLKNLV]
MIC (Escherichia coli K-12): ≥ 60 µM
MIC [1]: ≥ 120 µM

CC(C)C[C@H](NC(=O)[C@H](CC(C)C)NC(=O)[C@H](Cc1cnc[nH]1)NC(=O)[C@H](Cc1cnc[nH]1)NC(=O)[C@H](CC(C)C)NC(=O)[C@H](CCCCN)NC(=O)[C@H](CCCCN)NC(=O)[C@H](CC(C)C)NC(=O)[C@H](CC(C)C)NC(=O)[C@H](CCCN=C(N)N)NC(=O)[C@H](CCCN=C(N)N)NC(=O)[C@H](Cc1c[nH]c2ccccc12)NC(=O)[C@H](CCCN=C(N)N)NC(=O)CNC(=O)CNC(=O)CNC(=O)[C@H](Cc1ccccc1)NC(=O)[C@H](CCCN=C(N)N)NC(=O)[C@H](CCCN=C(N)N)NC(=O)[C@H](Cc1ccccc1)NC(=O)[C@H](Cc1c[nH]c2ccccc12)NC(=O)[C@H](CCCCN)NC(=O)[C@H](Cc1c[nH]c2ccccc12)NC(=O)[C@H](Cc1ccccc1)NC(=O)[C@H](CCCCN)NC(=O)[C@H](CCCCN)NC(=O)[C@@H](N)Cc1ccccc1)C(=O)N[C@@H](Cc1cnc[nH]1)C(N)=O [FKKFWKWFRRFGGGRWRRLLKKLHHLLH]
MIC (Streptococcus mutans): 4.28 µM (≈ 16 µg/mL)

CC[C@H](C)[C@H](NC(=O)CN)C(=O)N[C@@H](CC(C)C)C(=O)NCC(=O)N[C@H](C(=O)N[C@H](C(=O)N[C@@H](Cc1ccccc1)C(=O)N[C@@H](CCCCN)C(=O)N[C@@H](C)C(=O)NCC(=O)N[C@@H](CCCCN)C(=O)NCC(=O)N[C@H](C(=O)N[C@H](C(=O)N[C@H]1CSSC[C@@H](C(=O)O)NC(=O)[C@H](CC(C)C)NC(=O)CNC(=O)[C@H]([C@@H](C)O)NC(=O)[C@H](CC(C)C)NC(=O)CNC1=O)C(C)C)[C@@H](C)CC)C(C)C)[C@@H](C)O [GILGTVFKAGKGIVCGLTGLC]
MIC [12]: 12.5 µM (≈ 25.1 µg/mL)
MIC [13]: ≥ 50 µM
MIC [14]: ≥ 50 µM
MIC [15]: 12.5 µM (≈ 25.1 µg/mL)
MIC [11]: 3.1 µM (≈ 6.22 µg/mL)

CC[C@H](C)[C@H](NC(=O)[C@H](CCCCN)NC(=O)[C@@H](NC(=O)[C@H](CO)NC(=O)[C@H](CC(N)=O)NC(=O)[C@H](Cc1c[nH]c2ccccc12)NC(=O)[C@H](CC(C)C)NC(=O)CN)[C@@H](C)CC)C(=O)N[C@@H](C)C(=O)NCC(=O)N[C@@H](CCCCN)C(=O)N[C@@H](CC(N)=O)C(=O)N[C@@H](CC(C)C)C(=O)N[C@@H](Cc1ccccc1)C(=O)N[C@H](C(=O)N[C@@H](CC(N)=O)C(=O)N[C@H](C(=O)N[C@@H](CC(C)C)C(=O)N[C@@H](CC(=O)O)C(=O)N[C@@H](CCCCN)C(=O)N[C@H](C(=O)N[C@@H](CCCN=C(N)N)C(=O)N[C@H]1CSSC[C@@H](C(=O)O)NC(=O)CNC(=O)CNC(=O)[C@H](C)NC(=O)[C@H](C(C)C)NC(=O)[C@H](CCCCN)NC1=O)[C@@H](C)CC)C(C)C)C(C)C [GLWNSIKIAGKNLFVNVLDKIRCKVAGGC]
MIC [13]: ≥ 100 µM
MIC [14]: 12.5 µM (≈ 38.9 µg/mL)
MIC [15]: 12.5 µM (≈ 38.9 µg/mL)
MIC [11]: 3.1 µM (≈ 9.66 µg/mL)
